Target: vanilloid receptor 1 (VR1/TRPV1 receptor) (Homo sapiens, UniProt Q8NER1)
Experiment: Functional FLIPR Ca2+ influx assay on vanilloid receptor 1, capsaicin (Cap) stimulus
Type: cell-based
Settings: inhibition at 1 μM
Outline: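 Antagonism of Ca2+ influx stimulated by capsaicin (100 nM) in CHO K1 cells transfected with human VR1, read with Fluo-4 dye in a FLIPR; value is concentration giving 50% displacement of capsaicin. Rat VR1 variant uses cultured rat dorsal root ganglion neurons in NGF-containing medium.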

N-((2-(2-ethoxy-5-methylphenyl)-6-(trifluoromethyl)pyridin-3-yl)methyl)-2-(3-fluoro-4-(methylsulfonamidomethyl)phenyl)propanamide [Example 48]
(f) inhibition (human being), Cap, @1 μM: 15%@1 μM
